Measured values reported in patent EP4574151A1, “INHIBITORS OF G12V-MUTATED RAS PROTEIN TO TREAT CANCER” (Personather Spolka Z Ograniczona Odpowiedzialnoscia, priority 2023, dated 2025).
“Also recorded” adds a separate entry of the source.

How the values were obtained:
Format in all cases: cell-based
[1] = tested on: SW620 cells (with RASG12V mutation); assay: Crystal violet cytotoxicity test (IC50) in KRASG12V positive cells; settings: for toxicity towards KRASG12V positive cells (SW620) compared to normal cells (NIH/3T3): ratio from IC50 values, crystal violet test, 72 hours incubation; for toxicity against cancer cells expressing KRASG12V: summary statement
Source text: IC50 (half-maximal inhibitory concentration) is the concentration value of a tested compound which inhibits biochemical and biological functions of cells in half of the tested population. Determining this indicator is extremely important for assessing the cytotoxicity of molecules with therapeutic potential.
The first step in developing the methodology for determining IC50 was to conduct density tests to determine the appropriate number of cells to use in cytotoxicity tests. The different content of bovine fetal serum in the culture medium was also investigated to rule out any potential impact on the reduction in cell count, regardless of the analyzed molecules.
(§1) As a research model, colon cancer and lung cancer cell lines (sensitive lines) were used, including SW620, SW480, and COR-L23, respectively, which are characterized by the KRASG12V gene mutation and lack of other alterations in genes belonging to the RAS protein signaling pathway, as well as a stable line of normal cells (mouse fibroblasts), which serve as a platform for evaluating the impact of tested compounds on non-cancer cells. Below is the result for one of the analyzed cell lines with the mutation. Similar differences in IC50 values compared to normal cells were obtained for the other cell lines mentioned above with the RASG12V mutation.
(§2) The effect of molecules on the biology of selected cell lines to assess their cytotoxicity using the IC50 indicator was carried out according to the protocol below: • 1. The cells of the tested lines were seeded in wells of a 96-well plate at specified densities. • 2. After seeding, the cells were subjected to a 24-hour incubation in medium with a 1% and 2.5% addition of serum (sensitive lines) or in medium with a 0.5% addition of serum (normal line). • 3. The cells were exposed to selected molecules at selected concentrations. The control was provided by the culture medium without any added compounds. Concentrations of the tested molecules [uM]: • □ NIH3T3: 500; 250; 125; 62,5; 31,25 • □ SW620: 60; 30; 15; 7,5; 3,75 • 4. After 72 hours of incubation, the culture medium was removed and the cells were washed twice with buffer saline solution (PBS). Then, the cells were incubated for 10 minutes with a 0.1% solution of crystal violet at room temperature (Merck Millipore). • 5. After 10 minutes, the crystal violet solution was removed and the wells of the 96-well plate were washed twice with PBS solution. • 4. 50% ice-cold acetic acid solution was added to each well and incubated again for 10 minutes at room temperature on a shaker at 650 rpm. • 5. Absorbance measurement was performed using a plate reader, at a wavelength of λ = 540 nm

PER49 cell line = assay: Western Blot analysis of the RAS-controlled signal transduction pathway in a normal cell line; settings: normal PER49 cell line without KRASG12V; 10, 15 and 20 µM; 24 hours; serum-free; ERK, p-ERK, Akt, pAkt blots
Source text: Analysis of the impact of the studied compound on the signal transduction pathway controlled by RAS family proteins in normal cell lines based on Western Blot analysis.
The example illustrates the impact of the PER154A and PER160A molecules on the signal transduction pathway in the normal PER49 cell line.
• 1. PER49 cell line cells at 80-90% confluency were rinsed with phosphate-buffered saline without Mg2+ and Ca2+ ions. Remove PBS. • 2. Cells were detached from the vessel using Trypsin-EDTA (0.05%, 1x) for 1-3 minutes at 37°C. • 3. Cells were transferred to a 15 ml tube, centrifuged (200xg, 4 minutes) and suspended in RPMI1640 medium with 10% bovine serum and antibiotics. • 4. Cells were counted. • 5. 3x10^5cells were added to each well of a 6-well plate for adherent culture. • 6. The above medium was added and left for approximately 24 hours.
• 7. The cells were washed 2-3 times with buffered saline without Mg2+ and Ca2+ ions. Each time PBS was thoroughly removed. • 8.2 ml of RPMI1640 medium with antibiotics and without serum was added, and left for approximately 24 hours.
• 9. The cells were washed 2-3 times with a buffered saline solution without Mg2+ and Ca2+. PBS was thoroughly removed each time. • 10. […]

[2] = tested on: NIH/3T3 cell line - immortalized mouse fibroblasts; assay: Crystal violet cytotoxicity test in normal cells; settings: summary statement; normal cells NIH/3T3 and PER49
Source text: To evaluate the toxicity of the tested compound on normal cells, the NIH/3T3 cell line - immortalized mouse fibroblasts and normal pericytes (PER49) were used.
as §1, §2

Structure (SMILES) | toxicity towards KRASG12V positive cells (SW620) compared to normal cells (NIH/3T3) [1] | toxicity against cancer cells expressing KRASG12V [1] | influence on the signal transduction pathway (PER49 cell line) | toxicity against normal cells [2]
O=C(Nc1ccc(F)cc1)c1ccc2c(c1)C1C3CCC(C3)C1C(c1ccccc1)N2 (centres unmarked) [PER160A] | over 36 times | toxicity | No impact; also recorded: does not show any influence | no toxicity
O=C(Nc1ccc2c(c1)OCCO2)c1ccc2c(c1)C1C3CCC(C3)C1C(c1ccccc1)N2 (centres unmarked) [PER154A] | about 85 times | toxicity | No impact; also recorded: does not show any influence | no toxicity
